Results as given in ChEMBL document CHEMBL1123229, “A molecular mechanics approach to the understanding of presynaptic selectivity for centrally acting dopamine receptor agonists of the phenylpiperidine series” (1986).
Calls of active or inactive are those of the source. No cut-off for these calls is given here.

Experiments:
[1] = target: T1, Dopamine receptor (Rattus norvegicus) (UniProt P25115+P19020+P30729+P18901+P61169); assay: Compound was tested or presynaptic agonistic activity against dopamine receptor in striatum; Inactive; assay type: functional, tissue-based
[2] = target: T1, Dopamine receptor (Rattus norvegicus); assay: Compound was tested for presynaptic agonistic activity against dopamine receptor in limbic system; Inactive; assay type: functional, tissue-based
[3] = test system: Rattus norvegicus; assay: Dose required for postsynaptic agonism using motor activity test in reserpinized rats; I= Inactive at 2 umol/kg; assay type: functional, organism-based
[4] = species: Rattus norvegicus; assay: Dose required for postsynaptic agonism using motor activity test in reserpinized rats; assay type: functional
[5] = species: Rattus norvegicus; assay: Compound was evaluated for postsynaptic agonistic activity using motor activity test in reserpinized rats per 30 min; ns= Not significant; assay type: functional
[6] = species: Rattus norvegicus; assay: Postsynaptic agonistic activity using motor activity test in reserpinized rats per 30 min; assay type: functional
[7] = target: T1, Dopamine receptor (Rattus norvegicus); assay: Compound was tested or presynaptic agonistic activity against dopamine receptor in striatum; I= Inactive; assay type: functional, tissue-based
[8] = target: T1, Dopamine receptor (Rattus norvegicus); assay: Compound was tested for presynaptic agonistic activity against dopamine receptor in limbic system; I= Inactive; assay type: functional, tissue-based

Compound	Dose [4] [µM/kg]	Acc. counts [6]	also measured
CCCCNC1CCc2c(O)cccc2C1 (configuration not stated)	–	–	ED50 [1]: inactive; ED50 [2]: inactive; Dose [3]: inactive
Oc1cccc2c1CC[C@@H]1NCCC[C@@H]21	106	–	Acc. counts [5]: 10
CNC1CCc2c(O)cccc2C1 (configuration not stated)	100	–	Acc. counts [5]: 18
CCNC1CCc2c(O)cccc2C1 (configuration not stated)	2	181	–
Oc1cccc2c1CCC(N1CCCCC1)C2 (configuration not stated)	–	–	ED50 [7]: inactive; ED50 [8]: inactive
CCCN(C)C1CCc2c(O)cccc2C1 (configuration not stated)	2	239	–
Oc1ccc2c(c1)C1CCCNC1CC2 (configuration not stated)	106	–	Acc. counts [5]: 10
CCCN1CCC[C@H]2c3cccc(O)c3CC[C@@H]21	1.3	62	–
CCCN1CCC[C@@H](c2ccc(O)c(O)c2)C1	50	24	–
CN1CCCC2c3cc(O)ccc3CCC21 (configuration not stated)	106	60	–
CCCN1CCC[C@H](c2cccc(O)c2)C1	13	78	–
CCCN1CCC[C@@H]2c3cc(O)ccc3CC[C@H]21	1.06	155	–
CCCN(CCC)[C@@H]1CCc2ccc(O)cc2C1	0.31	46	–
CN1CCc2cccc3c2[C@H]1Cc1ccc(O)c(O)c1-3 [APOMORPHINE]	2.3	361	–
CCCN1CCC[C@@H](c2cccc(O)c2)C1 [PRECLAMOL]	213	12	–
CCCN(CCC)[C@@H]1Cc2cccc(O)c2C[C@H]1C	0.31	155	–
CN(C)C1CCc2c(O)cccc2C1 (configuration not stated)	100	52	–
CN1CCCC2c3cccc(O)c3CCC21 (configuration not stated)	100	40	–
